From ChEMBL document CHEMBL6127124, “Structure-Activity Relationships and Discovery of (S)-5-(tert-Butyl)-11-(difluoromethoxy)-9-methoxy-2-oxo-1,2,5,6-tetrahydropyrido[2',1':2,3]imidazo[4,5-h]quinoline-3-carboxylic Acid (AB-161), a Novel Orally Available and Liver-Centric HBV RNA Destabilizer” (J Med Chem, 2024) come the findings set out here.

Series [1] in a line: Ratio of total drug concentration in liver to plasma in CD-1 mouse at 10 mg/kg, po measured for 12 hrs by LC-MS/MS analysis. Particulars: liver and plasma. The class given is ADME, organism-based.
Series [2] in a line: AUC (0 to 24 hrs) in CD-1 mouse at 0.2 mg/kg, po measured for 24 hrs by LC-MS/MS analysis. The class given is ADME, organism-based. The following applies: in vivo.
Series [3] is described as follows: Ratio of total drug concentration in liver to plasma in CD-1 mouse at 0.2 mg/kg, po measured for 12 hrs by LC-MS/MS analysis. The format is ADME, organism-based. Particulars: liver and plasma.
The nature of series [4]: Selectivity ratio of drug concentration in liver in CD-1 mouse at 0.2 mg/kg, po measured for 12 hrs to EC90 for antiviral activity against HBV infected in human HepG2.2.15 cells assessed as reduction in HBsAg level. The class given is ADME, organism-based. Particulars: in vivo.
Series [5] can be described thus: Selectivity ratio of drug concentration in liver in CD-1 mouse at 0.2 mg/kg, po measured for 24 hrs to EC90 for antiviral activity against HBV infected in human HepG2.2.15 cells assessed as reduction in HBsAg level. The class given is ADME, organism-based. The following applies: in vivo.
Series [6] concerns Hepatitis B virus. Description: Antiviral activity against HBV genotype D in immuno-competent C57BL/6 mouse model of chronic HBV assessed as log10 reduction in HBsAg production at 3 mg/kg, po qd for 7 days measured 24 hrs post-last dose by EIA (reference value: 0.67). The class given is functional. Particulars: time 8 day.
Series [7] concerns Hepatitis B virus. As to the kind of experiment: Antiviral activity against HBV genotype D in immuno-competent C57BL/6 mouse model of chronic HBV assessed as log10 reduction in HBsAg production at 10 mg/kg, po qd for 7 days measured 24 hrs post-last dose by EIA (reference value: 0.98). The class given is functional. The following applies: time 8 day.
The nature of series [8]: Metabolic stability in Beagle dog liver microsomes assessed as clearance at 0.3 uM preincubated for 5 mins followed by NADPH addition measured upto 60 mins by LC-MS/MS analysis. The format is ADME, Canis lupus familiaris, Microsome. Particulars: read-out: CLH. (Liver microsomes are a subcellular fraction often used to study metabolism.)
A further series deals with T1, Cytochrome P450 1A2 (Homo sapiens, UniProt P05177).
T1 sequence (P05177 whole entry): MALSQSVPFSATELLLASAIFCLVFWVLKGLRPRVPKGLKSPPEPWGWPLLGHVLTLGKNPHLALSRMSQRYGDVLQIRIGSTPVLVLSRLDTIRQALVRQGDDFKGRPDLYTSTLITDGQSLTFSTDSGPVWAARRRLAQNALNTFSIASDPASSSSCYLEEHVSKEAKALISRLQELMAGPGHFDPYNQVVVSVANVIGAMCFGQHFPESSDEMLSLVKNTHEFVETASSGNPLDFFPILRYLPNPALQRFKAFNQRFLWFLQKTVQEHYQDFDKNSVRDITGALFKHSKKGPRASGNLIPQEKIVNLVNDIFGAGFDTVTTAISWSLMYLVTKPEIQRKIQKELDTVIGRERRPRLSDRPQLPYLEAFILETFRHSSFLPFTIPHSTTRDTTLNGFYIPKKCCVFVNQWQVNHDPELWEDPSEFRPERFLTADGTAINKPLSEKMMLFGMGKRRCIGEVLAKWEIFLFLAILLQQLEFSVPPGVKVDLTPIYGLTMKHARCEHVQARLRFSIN
Description: Inhibition of CYP1A2 in human liver microsomes using phenacetin as substrate preincubated for 30 min followed by NADPH addition measured after 12 mins by LC-MS/MS analysis. The class given is ADME, Microsome.

A further series concerns the target Cytochrome P450 2C19 (Homo sapiens, UniProt P33261). As to the kind of experiment: Inhibition of CYP2C19 in human liver microsomes using S-mephenytoin as substrate preincubated for 30 min followed by NADPH addition measured after 12 mins by LC-MS/MS analysis. The class given is ADME, Microsome.
The target of the next series is Cytochrome P450 2D6 (Homo sapiens, UniProt P10635). Description: Inhibition of CYP2D6 in human liver microsomes using dextromethorphan as substrate preincubated for 30 min followed by NADPH addition measured after 12 mins by LC-MS/MS analysis. The format is ADME, Microsome.
Sequence of Cytochrome P450 2D6 (P10635 whole entry): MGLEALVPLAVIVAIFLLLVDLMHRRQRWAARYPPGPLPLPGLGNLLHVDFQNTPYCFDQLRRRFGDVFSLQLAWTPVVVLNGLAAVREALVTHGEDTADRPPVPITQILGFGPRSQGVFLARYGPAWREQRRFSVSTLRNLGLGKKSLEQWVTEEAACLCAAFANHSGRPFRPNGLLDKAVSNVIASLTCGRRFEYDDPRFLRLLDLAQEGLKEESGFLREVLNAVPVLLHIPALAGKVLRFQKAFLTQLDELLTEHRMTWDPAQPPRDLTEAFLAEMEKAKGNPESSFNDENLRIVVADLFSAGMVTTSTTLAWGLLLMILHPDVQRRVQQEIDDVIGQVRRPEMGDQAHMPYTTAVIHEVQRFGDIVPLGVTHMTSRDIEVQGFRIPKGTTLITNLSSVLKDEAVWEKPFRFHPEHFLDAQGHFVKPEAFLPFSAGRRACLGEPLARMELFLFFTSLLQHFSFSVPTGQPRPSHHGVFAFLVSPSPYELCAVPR
Series [9] addresses T2, Cytochrome P450 3A4 (Homo sapiens, UniProt P08684). Description: Inhibition of CYP3A4 in human liver microsomes using midazolam as substrate preincubated for 30 min followed by NADPH addition measured after 12 mins by LC-MS/MS analysis. The format is ADME, Microsome.
Series [10] concerns the target T2, Cytochrome P450 3A4. Description: Inhibition of CYP3A4 in human liver microsomes using testosterone as substrate preincubated for 30 min followed by NADPH addition measured after 12 mins by LC-MS/MS analysis. The format is ADME, Microsome.
Series [11] is described as follows: Plasma protein binding in dog assessed as unbound fraction at 2 uM incubated for 6 hrs by equilibrium dialysis. The format is ADME, cell-free, Canis lupus familiaris. On the technique in general: In equilibrium dialysis only unbound substance equilibrates across the membrane.
Series [12] relates to Hepatitis B virus. Description: Antiviral activity against HBV genotype D in immuno-competent C57BL/6 mouse model of chronic HBV assessed as log10 reduction in serum HBsAg production at 0.3 mg/kg, po qd for 14 days measured 24 hrs post-last dose by EIA relative to control. The format is functional. Particulars: time 15 day.
In series [13] the test system is Hepatitis B virus. Description: Antiviral activity against HBV genotype D in immuno-competent C57BL/6 mouse model of chronic HBV assessed as log10 reduction in serum HBsAg production at 30 mg/kg, po qd for 14 days measured 24 hrs post-last dose by EIA relative to control. The class given is functional. The following applies: time 15 day.
The nature of series [14]: Drug concentration in CD-1 mouse kidney at 10 mg/kg, po measured for 24 hrs by LC-MS/MS analysis. The class given is ADME, organism-based. The following applies: read-out: Ct.
Series [15] in a line: Drug concentration in CD-1 mouse lung at 10 mg/kg, po measured for 24 hrs by LC-MS/MS analysis. Particulars: read-out: Ct. The class given is ADME, organism-based.
A short description of series [16]: Drug concentration in CD-1 mouse heart at 10 mg/kg, po measured for 24 hrs by LC-MS/MS analysis. The class given is ADME, organism-based. The following applies: read-out: Ct.
Series [17] in a line: Drug concentration in Sprague-Dawley rat plasma at 5 mg/kg, po measured for 24 hrs by LC-MS/MS analysis. The class given is ADME, organism-based. Particulars: read-out: Ct.
A short description of series [18]: Drug concentration in Sprague-Dawley rat liver at 5 mg/kg, po measured for 24 hrs by LC-MS/MS analysis. The class given is ADME, organism-based. The following applies: read-out: Ct.
Series [19] in a line: Drug concentration in Sprague-Dawley rat kidney at 5 mg/kg, po measured for 24 hrs by LC-MS/MS analysis. The class given is ADME, organism-based. The following applies: read-out: Ct.
A short description of series [20]: Drug concentration in Sprague-Dawley rat heart at 5 mg/kg, po measured for 24 hrs by LC-MS/MS analysis. The class given is ADME, organism-based.
Series [21] is described as follows: Ratio of drug concentration in kidney to plasma of CD-1 mouse at 10 mg/kg, po measured for 24 hrs by LC-MS/MS analysis. The following applies: kidney and plasma. The format is ADME, organism-based.
Series [22] can be described thus: Ratio of drug concentration in lung to plasma of CD-1 mouse at 10 mg/kg, po measured for 24 hrs by LC-MS/MS analysis. The format is ADME, organism-based. The following applies: lung and plasma.
Series [23] is described as follows: Ratio of drug concentration in heart to plasma of CD-1 mouse at 10 mg/kg, po measured for 24 hrs by LC-MS/MS analysis. The format is ADME, organism-based. Particulars: heart and plasma.
Series [24] can be described thus: Ratio of drug concentration in kidney to plasma of Sprague-Dawley rat at 5 mg/kg, po measured for 24 hrs by LC-MS/MS analysis. The format is ADME, organism-based. The following applies: kidney and plasma.
A short description of series [25]: Ratio of drug concentration in heart to plasma of Sprague-Dawley rat at 5 mg/kg, po measured for 24 hrs by LC-MS/MS analysis. The class given is ADME, organism-based.
Setting [26] is: in vivo, po, 5 mg/kg, 24 h, BLD = below limit of detection.

SMILES strings stand for the structures. Some results are limits rather than exact numbers.

T2 sequence (P08684 whole entry): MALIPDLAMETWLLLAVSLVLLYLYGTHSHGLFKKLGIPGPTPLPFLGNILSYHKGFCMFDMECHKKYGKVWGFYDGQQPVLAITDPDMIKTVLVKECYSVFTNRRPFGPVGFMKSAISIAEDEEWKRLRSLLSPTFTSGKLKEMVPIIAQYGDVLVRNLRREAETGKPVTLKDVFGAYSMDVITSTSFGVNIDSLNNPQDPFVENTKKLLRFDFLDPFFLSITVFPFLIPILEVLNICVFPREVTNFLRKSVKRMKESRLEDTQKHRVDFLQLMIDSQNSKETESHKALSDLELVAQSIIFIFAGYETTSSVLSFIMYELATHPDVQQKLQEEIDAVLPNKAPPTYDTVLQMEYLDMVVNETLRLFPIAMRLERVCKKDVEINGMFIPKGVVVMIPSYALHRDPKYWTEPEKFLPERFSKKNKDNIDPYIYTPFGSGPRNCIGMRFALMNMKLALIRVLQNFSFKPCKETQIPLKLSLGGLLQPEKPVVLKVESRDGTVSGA
Sequence of Cytochrome P450 2C19 (P33261 whole entry): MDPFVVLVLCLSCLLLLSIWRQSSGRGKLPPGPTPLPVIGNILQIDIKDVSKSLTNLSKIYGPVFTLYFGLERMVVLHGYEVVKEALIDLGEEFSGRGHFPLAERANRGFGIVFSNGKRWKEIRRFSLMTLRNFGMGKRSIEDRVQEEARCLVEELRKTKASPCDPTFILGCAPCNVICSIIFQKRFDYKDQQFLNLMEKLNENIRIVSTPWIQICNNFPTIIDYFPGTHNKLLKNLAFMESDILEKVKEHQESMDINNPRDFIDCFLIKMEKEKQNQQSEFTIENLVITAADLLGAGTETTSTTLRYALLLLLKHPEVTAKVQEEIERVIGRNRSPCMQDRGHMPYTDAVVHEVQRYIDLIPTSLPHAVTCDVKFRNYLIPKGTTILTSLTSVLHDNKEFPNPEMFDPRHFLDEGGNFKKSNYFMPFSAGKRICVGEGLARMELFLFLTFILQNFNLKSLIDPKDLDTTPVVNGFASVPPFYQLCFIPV

Regarding `COc1cc(OC(F)F)c2nc3c(n2c1)C[C@@H](C(C)(C)C)c1cc(C(=O)O)c(=O)[nH]c1-3`, the results for the Kp at 12 h in series [1] and in [3] were 109 and 284, respectively. In addition, the AUC(0-t) at 24 h in [2] worked out at 148 ng·h/mL. Further, the results for the Ratio in series [4], in [5] and in series [25] (setting [26]) were 166, 40 and “Bld”, respectively. The “log(activity)” value in the series with Hepatitis B virus [6] was 0.8; in the series with Hepatitis B virus [7] it was 0.67; in the series with Hepatitis B virus [12], 0.13; in the series with Hepatitis B virus [13], 0.94. In addition, in [8], the microsomal CLint at 0.3 µM was determined as 6 µL/min/mg. The concentration for half-maximal inhibition (IC50) was more than 25 µM at Cytochrome P450 1A2; 21 µM against Cytochrome P450 2C19; more than 25 µM against Cytochrome P450 2D6; more than 25 µM against Cytochrome P450 3A4 [9]; more than 25 µM against Cytochrome P450 3A4 [10]. Moreover, the fraction unbound at 6 h, 2 µM in series [11] came out at 0.05. The concentration at 24 h in series [14] was found to be 71 ng/g; in series [15], 25 ng/g; in series [16], 15 ng/g; in series [17], 0.7 ng/g; in series [18], 13900 ng/g; in series [19], 5.5 ng/g. In addition, in series [20] (setting [26]), the Ct result was “Bld”. Further, the Kp at 24 h is 1.3 in [21], 0.4 in series [22], 0.3 in series [23] and 7.9 in series [24].
For `COCCCOc1cc2c(nc1OC)-c1cc(=O)c(C(=O)O)cn1[C@H](C(C)C)C2`, the Kp at 12 h in [1] amounted to 6. Besides, the “log(activity)” value in the series with Hepatitis B virus [6] is 0.68; with Hepatitis B virus [7] it was 0.7. In addition, the microsomal CLint at 0.3 µM in series [8] is 4 µL/min/mg. For the same compound, the fraction unbound at 6 h, 2 µM in series [11] was found to be 0.38.
Take `CC(C)(C)[C@@H]1Cc2c(nc3c(C(F)(F)F)cc(C4CC4)cn23)-c2[nH]c(=O)c(C(=O)O)cc21`: the Kp at 12 h amounted to 56 in [1] and 120 in series [3]. The AUC(0-t) at 24 h in series [2] was 273 ng·h/mL. For the same compound, the Ratio in series [4] came out at 572; in series [5], 51. Also, the IC50 against Cytochrome P450 1A2 is more than 25 µM; against Cytochrome P450 2C19, 22 µM; on Cytochrome P450 2D6, more than 25 µM; on Cytochrome P450 3A4 [9], more than 25 µM; against Cytochrome P450 3A4 [10] it was more than 25 µM. Moreover, the fraction unbound at 6 h, 2 µM in series [11] worked out at 0.02. For the same compound, the figures for the “log(activity)” value in the series on Hepatitis B virus [12] and with Hepatitis B virus [13] were 0.35 and 1.35, respectively. In addition, the concentration at 24 h in [14] was determined as 23 ng/g; in [15] it was 35 ng/g; in series [16], 15 ng/g; in series [17] it was 6.7 ng/g; in [18], 6140 ng/g; in series [19], 6 ng/g. Moreover, the concentration at 24 h in series [20] (Sprague-Dawley, heart, read-out: Ct) came out at 1.3 ng/g. The Kp at 24 h in [21] is 0.3; in series [22], 0.4; in series [23], 0.2; in [24], 0.9; in series [25] (Sprague-Dawley, heart and plasma), 0.2.

In general, Kp refers to tissue or fluid exposure divided by exposure in the circulation. A word on the AUC(0-t): it is the area under the concentration-time curve up to a stated or last time point. The term IC50 denotes the midpoint of a concentration-inhibition curve. The term fraction unbound denotes free concentration divided by total concentration.
